≈ marks a conversion by molar mass, not a printed value. Where two headings read alike, the source gives them in different places.
Columns and labels:
Tetrahymena pyriformis W = experiment: Antiprotozoal activity, growth inhibition by serial dilution method; assay type: cell-based; details: read-out: Antiprotozoal activity MIC (μg/ml) Tetrahymena pyriformis W
Procedure: Antiprotozoal activity of compound (I) was assayed with Tetrahymena pyriformis W as the test organism and a medium composed of 20 g tryptose-peptone (Difoo Cc.), 1 g; yeast extract, 2 g glucose, 1000 mℓ distilled water, 10 mℓ IM phosphate buffer (pH 7.0) as the assay medium. The microorganism was incubated at 28°C for 44 to 48 hours and the growth inhibitory activity of compound (I) was assayed by the serial dilution method.

leukemia P-388 = experiment: Antitumor therapeutic test in mice, leukemia P-388 (NCI protocol), life span prolongation; assay type: in vivo; details: intraperitoneally once daily for 9 consecutive days
Procedure: (§1) Therapeutic tests were carried out in mice according to NCI-protocols 1,200 and 1,300, Cancer Chemother, Reports, Part 3, 1972, Vol.3, No.2, in which leukemia P-388 and melanoma B-16 tumor cells had been intraperitoneally transplanted, compound (I) being administered intraperitoneally once daily for 9 consecutive days.

melanoma B-16 = experiment: Antitumor therapeutic test in mice, melanoma B-16 (NCI protocol), life span prolongation; assay type: in vivo; details: intraperitoneally once daily for 9 consecutive days
Procedure: as §1

| Compound | MIC (Tetrahymena pyriformis W; incubated at 28°C for 44 to 48 hours, serial dilution method) [µg/mL] | MIC (Tetrahymena pyriformis W) [µg/mL] | Antitumor activities P-388 (T/C %) (leukemia P-388; Dose 50 µg/kg) | Antitumor activities P-388 (T/C %) (leukemia P-388; Dose 100 µg/kg) | Antitumor activities P-388 (T/C %) (leukemia P-388; Dose 200 µg/kg) | Antitumor activities P-388 (T/C %) (leukemia P-388; Dose 400 µg/kg) | Antitumor activities B-16 (T/C %) (melanoma B-16; Dose 100 µg/kg) | Antitumor activities B-16 (T/C %) (melanoma B-16; Dose 200 µg/kg) | Antitumor activities B-16 (T/C %) (melanoma B-16; Dose 400 µg/kg) | Antitumor activities B-16 (T/C %) (melanoma B-16; Dose 800 µg/kg) |
| --- | --- | --- | --- | --- | --- | --- | --- | --- | --- | --- |
| COc1cc2cc(c1)N(C)C(=O)CC(OC(=O)Cc1ccccc1)C1(C)OC1C(C)C1CC(O)(NC(=O)O1)C(OC)/C=C/C=C(\C)C2 (stereo not shown) [Dechloromaytansinol 3-phenylacetate, dechloromaytansinol 3-phenylacetate] | 2 (≈ 3.08 µM) | – | – | – | – | – | – | – | – | – |
| COc1cc2cc(c1)N(C)C(=O)CC(OC(=O)C1CCCCC1)C1(C)OC1C(C)C1CC(O)(NC(=O)O1)C(OC)/C=C/C=C(\C)C2 (stereo not shown) [dechloromaytansinol 3-cyclohexanecarboxylate] | – | 4 (≈ 6.24 µM) | – | – | – | – | – | – | – | – |
| COc1cc2cc(c1)N(C)C(=O)CC(OC(=O)C(C)C)C1(C)OC1C(C)C1CC(O)(NC(=O)O1)C(OC)/C=C/C=C(\C)C2 (stereo not shown) [Dechloromaytansinol 3-isobutyrate, dechloromaytansinol 3-isobutyrate] | – | – | 168 | 189 | 193 | 224 | 150 | 152 | 174 | 214 |
| dechloromaytansine | – | – | 158 | 165 | 175 | 189 | 171 | 152 | 179 | 190 |
| COc1cc2cc(c1)N(C)C(=O)CC(OC(=O)CCl)C1(C)OC1C(C)C1CC(O)(NC(=O)O1)C(OC)/C=C/C=C(\C)C2 (stereo not shown) [Dechloromaytansinol 3-chloroacetate, dechloromaytansinol 3-chloroacetate] | – | ≥ 4 | – | – | – | – | – | – | – | – |
